{"source": "patent US5869464A", "about": "“2'-Deoxy-5-fluorouridine derivatives, a process for their preparation, antitumor agents containing same and methods for using said agents” (Taiho Pharmaceutical Co. Ltd., priority 1993, dated 1999)", "key": {"Yoshida sarcoma cells [1]": {"test_system": "Yoshida sarcoma cells", "experiment": "Antitumor effect on subcutaneously transplanted Yoshida sarcoma (Pharmacological Test Example 1)", "type": "in vivo, rat (male Donryu/CRJ strain)", "conditions": "oral; for ED50: Rattus norvegicus, YOSHIDA, once a day for 7 consecutive days from 24 h after transplantation, 8th day, read-out: ED50 (effective dose for achieving 50% inhibition of tumor growth); for T.I. (therapeutic index = BWC50/ED50): once a day for 7 consecutive days", "description": "The compounds of the present invention were tested for antitumor effect.\nRat-transplantable tumor, Yoshida sarcoma cells (2×10^4) were subcutaneously transplanted in the back of male Donryu/CRJ strain rats (weighing 150 to 165 g). The test compounds were suspended in a 0.5% aqueous solution of hydroxypropylmethyl cellulose. Twenty-four hours after the transplantation, each suspension was orally administered to rats (7 rats in each group) in an amount of 1.0 ml per 100 g of rats' body weight once a day for 7 consecutive days. Only a solution of hydroxypropylmethyl cellulose containing no test compound was orally administered to the control group in an amount of 1.0 ml/100 g rats' body weight once a day for 7 consecutive days starting 24 hours after the transplantation.\nThe rats were sacrificed on the 8th day after the transplantation and their tumors were extirpated. The tumors were weighed to calculate an average tumor weight at each dose. The results were compared between the treated group and the control group. An effective dose (ED50) for achieving 50% inhibition of tumor growth was determined from the dose-tumor reduction curve. A dose of 50% inhibition of body weight gain (BWC50)was determined from the dose-body weight change curve. The therapeutic index (T.I.=BWC50 /ED50) was also determined."}, "[2]": {"experiment": "Inhibition of body weight gain in Yoshida sarcoma-bearing rats (Pharmacological Test Example 1)", "design": "species or system rat (male Donryu/CRJ strain)", "conditions": "rat, in vivo"}, "Yoshida sarcoma cells [3]": {"test_system": "Yoshida sarcoma cells", "experiment": "Antitumor effect on subcutaneously transplanted Yoshida sarcoma (Pharmacological Test Example 1)", "type": "in vivo, rat (male Donryu/CRJ strain)", "conditions": "for ED50: Rattus norvegicus, YOSHIDA, iv, read-out: ED50 (effective dose for achieving 50% inhibition of tumor growth)"}, "tumor cells": {"test_system": "tumor cells", "conditions": "in vitro tests; cited from earlier work"}, "[4]": {"conditions": "under the influence of pyrimidine nucleoside phosphorylase; cited from earlier work"}, "[5]": {"test_system": "human kidney cancer strain, JRC-11", "experiment": "Tumor growth inhibition, nude rat-transplantable human kidney cancer strain JRC-11 (Pharmacological Test Example 2(a))", "type": "in vivo, human tumor in male F344/N Jcl-rnu nude rat", "conditions": "once a day for 14 consecutive days", "description": "(§1) (a) A tumor piece (about 2 mm^3) of nude rat-transplantable human kidney cancer strain, JRC-11, was subcutaneously transplanted in the armpit of each male F344/N Jcl-rnu nude rat. The treatment of rats (7 rats in each group) started when the rats' tumors grew to an estimated volume of 250 mm^3 as calculated by an equation\nwherein L is the length of the tumor and W is the width of the tumor, each being measured by calipers. The treated group (rats to be treated with the test compounds) and the control group were tested under equal conditions concerning the mean value of tumor volume and standard deviation. The test compounds were suspended in a 0.5% aqueous solution of hydroxypropylmethyl cellulose. Each suspension was orally administered to rats in an amount of 1.0 ml per 100 g of rats' body weight once a day for 14 consecutive days. Only a solution of hydroxypropylmethyl cellulose containing no test compound was orally administered to the control group in an amount of 1.0 ml per 100 g rats' body weight once a day for 14 consecutive days.\n(§2) A ratio of tumor growth of each rat was calculated from two tumor volumes on the first day of administration and on the day following the last administration. A mean ratio of tumor growth of the group (T) or the control group (C) was calculated from said ratio. Then, a tumor growth inhibition ratio (%) was calculated by the following equation: […]"}, "[6]": {"test_system": "human stomach cancer strain, H-81", "experiment": "Tumor growth inhibition, nude rat-transplantable human stomach cancer strain H-81 (Pharmacological Test Example 2(b))", "type": "in vivo, human tumor in male F344/N Jcl-rnu nude rat", "conditions": "once a day for 14 consecutive days", "description": "as §1\nwherein L is the length of the tumor and W is the width of the tumor, each being measured by calipers. The treated group (rats to be treated with the test compounds) and the control group were tested under equal conditions concerning the mean value of tumor volume and standard deviation. The test compounds were suspended in a 0.5% aqueous solution of hydroxypropylmethyl cellulose. […]\nas §2\n(b) The same experiment as in (a) was conducted except that a nude rat-transplantable human stomach cancer strain, H-81, was used in place of the nude rat-transplantable human kidney cancer strain, JRC-11. A tumor growth inhibition ratio was calculated."}, "[7]": {"conditions": "CVI: continuous intravenous drip injection"}}, "note": "Like-named read-outs stand apart in the source and are kept apart here."}
{"smiles": "CCCCC(=O)OC[C@H]1O[C@@H](n2cc(F)c(OCc3ccc(F)cc3)nc2=O)C[C@@H]1OC(=O)CCCC", "note": "[Comparative Compound 3, 2'-deoxy-4-O-(4-fluorobenzyl)-3',5'-di-O-n-pentanoyl-5-fluorouridine]", "values": [{"measurement": "ED50", "setting": "Yoshida sarcoma cells [1]", "result": "> 40", "unit": "mg/kg"}, {"measurement": "T.I. (therapeutic index = BWC50/ED50)", "setting": "Yoshida sarcoma cells [1]", "result": "< 1.0"}, {"measurement": "TD50", "setting": "[2]; po", "result": 40, "unit": "mg/kg"}]}
{"smiles": "CCCOc1nc(=O)n([C@H]2C[C@H](OCc3ccc(F)cc3F)[C@@H](CO)O2)cc1F", "note": "[Compound 7]", "values": [{"measurement": "ED50", "setting": "Yoshida sarcoma cells [1]", "result": 7.5, "unit": "mg/kg"}, {"measurement": "T.I. (therapeutic index = BWC50/ED50)", "setting": "Yoshida sarcoma cells [1]", "result": 2.4}, {"measurement": "TD50", "setting": "[2]; po", "result": 18, "unit": "mg/kg"}]}
{"smiles": "O=c1[nH]c(=O)n([C@H]2C[C@H](O)[C@@H](CO)O2)cc1F", "note": "[FdUrd, 2'-deoxy-5-fluorouridine]", "values": [{"measurement": "TD50", "setting": "[2]; iv, CVI: continuous intravenous drip injection, read-out: BWC50 (dose of 50% inhibition of body weight gain)", "result": 0.7, "unit": "mg/kg"}, {"measurement": "TD50", "setting": "[2]; iv, iv: intravenous injection, read-out: BWC50 (dose of 50% inhibition of body weight gain)", "result": 60, "unit": "mg/kg"}, {"measurement": "T.I. (therapeutic index = BWC50/ED50)", "setting": "Yoshida sarcoma cells [3]; [7]", "result": 0.88}, {"measurement": "ED50", "setting": "Yoshida sarcoma cells [3]; [7]", "result": 0.8, "unit": "mg/kg"}, {"measurement": "ED50", "setting": "Yoshida sarcoma cells [3]; iv: intravenous injection", "result": 44, "unit": "mg/kg"}, {"measurement": "T.I. (therapeutic index = BWC50/ED50)", "setting": "Yoshida sarcoma cells [3]; iv: intravenous injection", "result": 1.36}, {"measurement": "inhibition of the growth of tumor cells", "setting": "tumor cells", "result": "significantly inhibits the growth of tumor cells"}, {"measurement": "therapeutic effect in vivo", "setting": "[4]", "result": "can not produce a satisfactory therapeutic effect"}]}
{"smiles": "CCCOc1nc(=O)n([C@H]2C[C@H](O)[C@@H](CO)O2)cc1F", "note": "[Comparative Compound 2, 2'-deoxy-4-O-n-propyl-5-fluorouridine]", "values": [{"measurement": "ED50", "setting": "Yoshida sarcoma cells [1]", "result": 34, "unit": "mg/kg"}, {"measurement": "T.I. (therapeutic index = BWC50/ED50)", "setting": "Yoshida sarcoma cells [1]", "result": 1.1}, {"measurement": "TD50", "setting": "[2]; po", "result": 37, "unit": "mg/kg"}]}
{"smiles": "CCOc1nc(=O)n([C@H]2C[C@H](OCc3ccc(Cl)cc3F)[C@@H](CO)O2)cc1F", "note": "[Compound 13, 3'-O-(4-chloro-2-fluorobenzyl)-2'-deoxy-4-O-ethyl-5-fluorouridine]", "values": [{"measurement": "Inhibition ratio (%) (tumor growth)", "setting": "[5]; 3.75 mg/kg oral", "result": 67, "unit": "%"}, {"measurement": "Inhibition ratio (%) (tumor growth)", "setting": "[5]; 7.5 mg/kg oral", "result": 73, "unit": "%"}, {"measurement": "Inhibition ratio (%) (tumor growth)", "setting": "[6]; 3.75 mg/kg oral", "result": 74, "unit": "%"}, {"measurement": "Inhibition ratio (%) (tumor growth)", "setting": "[6]; 7.5 mg/kg oral", "result": 79, "unit": "%"}]}
{"smiles": "O=c1[nH]c(=O)n([C@H]2C[C@H](OCc3ccc(Cl)cc3F)[C@@H](CO)O2)cc1F", "note": "[Comparative Compound 1, 3'-O-(4-chloro-2-fluorobenzyl)-2'-deoxy-5-fluorouridine]", "values": [{"measurement": "ED50", "setting": "Yoshida sarcoma cells [1]", "result": 7.5, "unit": "mg/kg"}, {"measurement": "T.I. (therapeutic index = BWC50/ED50)", "setting": "Yoshida sarcoma cells [1]", "result": 1.1}, {"measurement": "TD50", "setting": "[2]; po", "result": 8.5, "unit": "mg/kg"}]}
{"smiles": "CCCOc1nc(=O)n([C@H]2C[C@H](OCc3ccc(Cl)cc3Cl)[C@@H](CO)O2)cc1F", "note": "[Compound 12]", "values": [{"measurement": "ED50", "setting": "Yoshida sarcoma cells [1]", "result": 3, "unit": "mg/kg"}, {"measurement": "T.I. (therapeutic index = BWC50/ED50)", "setting": "Yoshida sarcoma cells [1]", "result": 5.3}, {"measurement": "TD50", "setting": "[2]; po", "result": 16, "unit": "mg/kg"}]}
{"smiles": "CCCOc1nc(=O)n([C@H]2C[C@H](OCc3ccc(Cl)cc3F)[C@@H](CO)O2)cc1F", "note": "[Compound 3]", "values": [{"measurement": "ED50", "setting": "Yoshida sarcoma cells [1]", "result": 4, "unit": "mg/kg"}, {"measurement": "T.I. (therapeutic index = BWC50/ED50)", "setting": "Yoshida sarcoma cells [1]", "result": 3.5}, {"measurement": "TD50", "setting": "[2]; po", "result": 14, "unit": "mg/kg"}]}
